# Measured values taken from PubChem BioAssay (NCI).
# Where “and” joins values, the source holds several entries; their conditions need not be identical. Equal values may be shown once.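 1) Cells in 96-well plates. 2) Compound, 48 h, 5 concentrations. 3) Linear interpolation between surrounding doses. 4) Unreached endpoint = highest concentration. GI50 marks 50% less growth. TGI is the concentration that stops growth completely.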
# How the values were obtained:
# Assay in all cases: NCI-60 cell line screen, 48 h
# HL-60(TB) leukemia = test system: HL-60(TB) leukemia
# EKVX NSCLC = test system: EKVX NSCLC
# DU-145 prostate = test system: DU-145 prostate
# SW-620 colon = test system: SW-620 colon
# SK-MEL-28 melanoma = test system: SK-MEL-28 melanoma
# SNB-75 CNS = test system: SNB-75 CNS
# NCI-H23 lung = test system: NCI-H23 lung
# SF-539 CNS = test system: SF-539 CNS
# NCI-H522 lung = test system: NCI-H522 lung
# CAKI-1 renal = test system: CAKI-1 renal
SMILES,TGI (HL-60(TB) leukemia),TGI (EKVX NSCLC) [µM],TGI (DU-145 prostate) [µM],TGI (SW-620 colon),TGI (SK-MEL-28 melanoma),TGI (SNB-75 CNS),TGI (NCI-H23 lung),GI50 (HL-60(TB) leukemia),GI50 (EKVX NSCLC) [µM],GI50 (DU-145 prostate),GI50 (SF-539 CNS),TGI (SF-539 CNS),GI50 (SW-620 colon),GI50 (NCI-H522 lung),TGI (NCI-H522 lung),GI50 (SK-MEL-28 melanoma),GI50 (SNB-75 CNS) [µM],GI50 (NCI-H23 lung),GI50 (CAKI-1 renal),TGI (CAKI-1 renal)
COC(=O)C1(Cc2cccc(Cl)c2)CCCCCCN1C(=O)c1ccccc1 (stereo unspecified),34.3 µM,26.8,37.7,36 µM,31.7 µM,29.6 µM,51.1 µM,–,–,–,–,–,–,–,–,–,–,–,–,–
COc1cc(C2C(C#N)=C(N)OC3=C2C(=O)c2ccccc2C3=O)cc(OC)c1OC (stereo unspecified),6.77 µM,34,15.9,25.9 µM,22.9 µM,25.1 µM,4.34 µM,2.28 µM,12.6,0.474 µM,0.344 µM,4.56 µM,0.413 µM,0.26 µM,16.8 µM,6.72 µM,0.293,0.713 µM,0.736 µM,20.6 µM
COc1ccc(/C=C(\C#N)c2cc3ccccc3n2C)cc1,–,> 100,> 100,> 100 µM,> 100 µM,5.5 µM,> 100 µM,0.262 µM,0.765,0.502 µM,0.305 µM,1.22 µM,0.357 µM,0.407 µM,5.03 µM,4.52 µM,0.198,0.645 µM,0.437 µM,> 100 µM
O=[As](O)(O)c1ccc(Cc2ccc([As](=O)(O)O)cc2)cc1,3.98 µM,2.88,1.17,2.18 µM,2.92 µM,3.12 µM,2.26 µM,–,–,–,–,0.542 µM,–,–,1.44 µM,–,–,–,–,2.78 µM
O=[N+]([O-])c1ccc2c(N=Nc3c(O)ccc4ccccc34)c(O)cc(S(=O)(=O)O)c2c1,14.9 µM and 58.6 µM,> 100,> 100,50 µM and > 100 µM,50 µM and > 100 µM,50 µM and > 100 µM,50 µM and > 100 µM,7.58 µM,39.4,–,–,50.8 µM,57.7 µM,17.4 µM,50 µM and > 100 µM,32.5 µM,44.8,49.8 µM,–,50 µM
CCNCC(O)c1ccc(N)c([N+](=O)[O-])c1 (stereo unspecified),> 100 µM,> 100,> 100,> 100 µM,> 100 µM,> 100 µM,> 100 µM,–,–,–,–,> 100 µM,–,–,> 100 µM,–,–,–,–,> 100 µM
O=Cc1coc2ccccc2c1=O,42.3 µM,49.9,> 100,41.5 µM,–,0.0768 µM,70.7 µM,–,–,–,–,31.9 µM,–,–,48.1 µM,–,–,–,–,52.9 µM
O=C(/C=C\c1ccnc2ccccc12)c1ccc([N+](=O)[O-])cc1,> 75.5 µM,–,> 100,4.79 µM,> 83.2 µM,> 100 µM,59.5 µM,5.89 µM,–,43.1 µM,6.82 µM,24.9 µM,1.99 µM,15.2 µM,> 100 µM,20.5 µM,> 75.4,5.54 µM,13.2 µM,> 100 µM
Cc1nc(NC(=O)N2CCC[C@H]2C(N)=O)sc1-c1ccnc(C(C)(C)C(F)(F)F)c1,37.3 µM and > 10 µM,> 10,> 73.1,> 67.1 µM,> 61.6 µM,15.5 µM,61.9 µM and > 10 µM,1.04 µM and 0.289 µM,4.53,4.84 µM and 9.16 µM,3.93 µM and 4.6 µM,24.3 µM and > 10 µM,4.82 µM and 7.37 µM,6.41 µM and 8.17 µM,27.1 µM and > 10 µM,4.72 µM and 6.71 µM,0.594,10.2 µM and > 10 µM,2.39 µM and 3.35 µM,17.8 µM and > 10 µM
CCNCCNc1cc(-c2ccc(F)cc2)c(C#N)c2nc3ccccc3n12,4.36 µM,26.7,14.9,10.1 µM,3.59 µM,4.39 µM,29 µM,2.09 µM,13.6,4.01 µM,1.7 µM,3.24 µM,2.95 µM,2.93 µM,9.43 µM,1.86 µM,1.81,13.7 µM,4 µM,15.4 µM
Cn1cnc([N+](=O)[O-])c1Sc1ncnc2c1ncn2C1OC(CO)C(O)C1O (stereo unspecified),> 100 µM,> 100,> 100,> 100 µM,> 100 µM,> 100 µM,> 100 µM,22.6 µM,86.2,1.87 µM,4.11 µM,> 100 µM,32.6 µM,9.62 µM,> 100 µM,72.2 µM,27.7,4.8 µM,3.53 µM,> 100 µM
CCCC[C@@H](COC(=O)N(Cc1cccs1)Cc1cccs1)NC(=O)N[C@@H](CC(=O)OC)c1ccc2c(c1)OCO2,> 100 µM,> 100,> 100,> 100 µM,> 100 µM,> 100 µM,> 100 µM,> 100 µM,> 100,> 100 µM,> 100 µM,> 100 µM,> 100 µM,> 100 µM,> 100 µM,> 100 µM,> 100,> 100 µM,> 100 µM,> 100 µM
O=C(/C=C/c1ccco1)Nc1ncc(Cc2ccc(F)cc2)s1,0.185 µM,> 100,> 100,> 100 µM,> 100 µM,0.706 µM,> 100 µM,0.0533 µM,0.303,0.0901 µM,0.0686 µM,0.379 µM,0.0443 µM,0.0255 µM,0.191 µM,3.5 µM,0.0547,0.234 µM,0.0525 µM,> 100 µM
COc1ccc(C(Nc2ncccn2)c2cc3c(cc2O)OCO3)cc1 (stereo unspecified),46 µM,55.7,44.4,28.3 µM,52.4 µM,22.7 µM,35.3 µM,–,–,–,–,33.1 µM,–,–,31.7 µM,–,–,–,–,46.9 µM
Cn1c(O)c(C(=O)Nc2ccc([N+](=O)[O-])cc2)c(=O)n(C)c1=S,> 100 µM,> 23.2,11.5,31.3 µM,3.68 µM,6.37 µM,3.26 µM,–,–,–,–,4.2 µM,–,–,> 100 µM,–,–,–,–,10.6 µM
CC1(C)OCN(c2ccc(Cl)cc2)Cn2c1nc1ccccc12,47.8 µM,> 100,> 100,> 100 µM,> 100 µM,> 100 µM,> 100 µM,–,–,–,–,> 100 µM,–,–,> 100 µM,–,–,–,–,–
FC(F)(F)c1ccc(-c2cnc(Br)nc2NC2CCCCCC2)cc1,> 100 µM,–,> 100,> 100 µM,> 100 µM,> 100 µM,> 100 µM,31.4 µM,–,> 100 µM,> 100 µM,> 100 µM,96.7 µM,28.3 µM,> 100 µM,> 100 µM,> 100,32.9 µM,92.9 µM,> 100 µM
N#Cc1nc(-c2ccccc2)oc1S(=O)(=O)N1CCOCC1,4.79 µM,24.9,19.1,4.84 µM,6.5 µM,23.7 µM,26 µM,2.08 µM,4.4,6.08 µM,2.6 µM,7.69 µM,2.04 µM,0.702 µM,3 µM,2.46 µM,11.2,8.6 µM,1.61 µM,3.04 µM
CC(=O)/C(C)=N/N/C(N)=N\S(=O)(=O)c1cc(C(=O)Nc2ccccc2)c(Cl)cc1SCc1ccccc1,24.2 µM,39.5,> 100,–,> 100 µM,> 100 µM,> 100 µM,2.36 µM,6.62,3.5 µM,2.79 µM,8.05 µM,–,64.7 µM,> 100 µM,> 100 µM,> 100,42.8 µM,> 100 µM,> 100 µM
COc1ccc(/C=C\c2cc(OC)c(OC)c(OC)c2)c(NS(=O)(=O)c2ccc(C)cc2)c1O,2.06 µM,> 100,–,> 100 µM,> 96.2 µM,> 100 µM,49.6 µM,0.0338 µM,0.0644,0.0399 µM,0.0237 µM,0.0641 µM,0.0447 µM,0.0377 µM,> 35 µM,0.602 µM,0.0304,0.0451 µM,0.0938 µM,> 100 µM
O=Nc1c(O)ccc2ccccc12,6.04 µM,–,10.5,8.04 µM,6.6 µM,14.5 µM,–,2.42 µM,–,3.5 µM,2.59 µM,6.29 µM,2.46 µM,2.06 µM,4.25 µM,2.8 µM,2.52,–,3.1 µM,12.1 µM
CCS/C(Nc1ccccc1)=C(\C#N)C(=O)Nc1ccc(OC)cc1,> 100 µM,> 100,49.8,> 100 µM,> 100 µM,7.21 µM,> 100 µM,2.87 µM,4.42,3.48 µM,1.96 µM,4.81 µM,2.55 µM,2.2 µM,9.68 µM,15.3 µM,2.13,4.9 µM,3.39 µM,> 100 µM
COc1ccc(/C=C2\N=C3SC=C(N)N3C2=O)cc1,4.6 µM,–,2.71,6.07 µM,4.75 µM,7.61 µM,8.47 µM,1.12 µM,–,1.2 µM,1.5 µM,4.07 µM,1.34 µM,0.314 µM,1.5 µM,1.29 µM,0.757,1.67 µM,1.32 µM,7.01 µM
C#Cc1ccc(NC(=O)c2ccc(/C=C/C(=O)c3nccn3C)cc2)cc1,1.37 µM,1.45,1.57,1.01 µM,1.24 µM,0.809 µM,1.06 µM,0.507 µM,0.565,0.597 µM,0.42 µM,0.801 µM,0.382 µM,0.518 µM,1.37 µM,0.521 µM,0.344,0.46 µM,0.51 µM,1.34 µM
COc1ccc(NC(=O)c2cc(OC)c(OC)c(OC)c2)cc1O,21.6 µM,> 100,> 100,> 100 µM,> 100 µM,> 100 µM,> 100 µM,1.08 µM,> 100,3.96 µM,2.75 µM,> 100 µM,1.11 µM,–,–,28.1 µM,1.56,5.32 µM,–,–
O=C1/C(=C/c2cccs2)CCC/C1=C\c1cccs1,> 100 µM,–,> 100,> 100 µM,> 100 µM,81.4 µM,> 100 µM,> 100 µM,–,46.6 µM,59.2 µM,> 100 µM,> 100 µM,40.1 µM,> 100 µM,> 72.2 µM,16.9,> 83.8 µM,55.8 µM,> 100 µM
CC(C)(C)CC(C)(C)c1ccc(OCCOCCSC(=N)N)cc1,3.58 µM,–,3.34,3.34 µM,3.24 µM,3.85 µM,7.38 µM,1.79 µM,–,1.84 µM,1.81 µM,3.31 µM,1.65 µM,1.71 µM,3.18 µM,1.72 µM,1.37,2.85 µM,2.28 µM,5.87 µM
CC#CC(=O)N1CCC[C@H]1c1nc(-c2ccc(C(=O)Nc3ccccn3)cc2)c2c(N)nccn12,> 100 µM,> 100,> 100,> 100 µM,> 100 µM,> 100 µM,> 100 µM,> 100 µM,35,71 µM,> 100 µM,> 100 µM,> 100 µM,13.9 µM,> 100 µM,47.3 µM,24.5,> 100 µM,–,–
COc1ccccc1-n1c(SCc2cc(OC)c(OC)c(OC)c2)nc2ccc(Cl)cc2c1=O,18.7 µM,–,> 100,> 100 µM,> 100 µM,32.7 µM,> 100 µM,2.99 µM,–,9.12 µM,3.41 µM,19.6 µM,2.59 µM,2.61 µM,> 100 µM,5.76 µM,2.41,5.9 µM,2.8 µM,> 100 µM
